Assay results: US6534448B1, “Composition and method for acidizing wells and equipment without damaging precipitation” (Halliburton Energy Services, Inc., priority 2000, dated 2003)

How the values were obtained:
[1] = in vivo
[2] = system: marine copepod Arcatia tonsa; assay: Static 48 hour toxicity test on marine copepod (draft ISO 14669:1999(E)); assay type: in vivo; conditions: test range 200.0 to 2000.0 mg l-1
Procedure: Test concentrations of sodium molybdate crystalline were prepared over the range 200.0 mg 1^−1 to 2000.0 mg 1^−1.

[3] = Amounts of electron transfer agents needed to reduce 2500 ppm ferric ion in less than five minutes (Example III); conditions: 15 lbs./Mgal Na2MoO4 in 15% HCl, room temperature
Procedure: The above concentrations were arrived at from room temperature experiments.
Next, tests were conducted to determine the optimum amounts of the electron transfer agent(s) that should be employed in the inventive acidizing composition. Each test fluid included 1% by volume thioglycolic acid, based on the total volume of the acid solution and was contaminated with 2500 ppm ferric ion (by adding a sufficient amount of ferric chloride to the fluid).
These fluids also included the primary electron transfer agent, either sodium molybdate or ammonium molybdate. The amount the molybdate utilized was varied.
These fluids also included the primary electron transfer agent, either sodium molybdate or ammonium molybdate, and the supplemental electron transfer agent (potassium iodide). The amounts of the molybdate and potassium iodide utilized were varied.
The tests were carried out at room temperature. The test fluids were contaminated with 2500 ppm of ferric ion by adding a corresponding amount of iron chloride (FeCl3.H2O) thereto.
It was determined that a complete reduction had taken place when the test fluids changed back to the red-brown color.
It was determined that a complete reduction had taken place when the test fluids changed back to the emerald green color (verified by UV-VIS experiments).

SMILES | concentration found to be toxic [1] [mg/L] | 24 hour EC50 (concentration which immobilized 50% of the copepods) ([2]; 24 hours) [mg/L] | 48 hour EC50 (concentration which immobilized 50% of the copepods) ([2]; 48 hours) [mg/L] | time required for reduction of 2500 ppm Fe(III) to Fe(II) [3] [min]
[Cl][Cu] [cuprous chloride] | ≥ 0.01 | – | – | –
[Na+].[Na+].[O]=[Mo](=[O])([O-])[O-] [sodium molybdate crystalline, sodium molybdate] | – | > 2000.0 | > 2000.0 | 2 to 3
